Reference: patent US9645154B2, “Method for detecting cancer cell” (ARKRAY, Inc., priority 2010, dated 2017)

Experiments:
Format in all cases: cell-based
[1] = system: human fibrosarcoma cell HT-1080; assay: Aminolevulinic acid labeling with or without iron ion and reducing agent (positive rate); settings: 0.3 mM, 37° C., 60 min
Source text: (§1) In accordance with the conventional method, human fibrosarcoma cell HT-1080 (DS Pharma Biomedical Co., Ltd.) and normal human dermal fibroblast cell NHDF (Lonza) in culture were harvested with trypsin (Invitrogen). The cell suspension of the harvested cancer cells was centrifuged, and the supernatant was removed. The cells were then resuspended with Dulbecco's PBS (+) (Nissui Pharmaceutical Co., Ltd.) and centrifuged, and the supernatant was removed again.
The number of the cells was counted using a hemacytometer in accordance with the conventional method, and then 10^5 to 10^6 cells per sample (cell suspension) was aliquoted. The sample was centrifuged to remove the supernatant. In the case an iron ion and a reducing agent were added, 0.3 mM of aminolevulinic acid (trade name: 5-AMINOLEVULINATE HYDROCHLORIDE, Cosmo Bio Co., Ltd.), 0.3 mM of FeCl2 and 0.3 mM of ascorbic acid dissolved in Dulbecco's PBS (+) were added thereto, and the cells were suspended well. In the case an iron ion and a reducing agent were not added, 0.3 mM of aminolevulinic acid dissolved in Dulbecco's PBS (+) was added singly, and the cells were suspended well. Each of the mixture was then allowed to react at 37° C. for 60 minutes. […]
(§2) The fluorescence filter set: EX (excitation wavelength) 402±7.5, DM 430 or longer, BA (fluorescence wavelength) 625±15.

[2] = system: normal human dermal fibroblast cell NHDF; assay: Aminolevulinic acid labeling with or without iron ion and reducing agent (degree of false-positive results); settings: 0.3 mM, 37° C., 60 min
Source text: as §1
The number of the cells was counted using a hemacytometer in accordance with the conventional method, and then 10^5 to 10^6 cells per sample (cell suspension) was aliquoted. The sample was centrifuged to remove the supernatant. In the case an iron ion and a reducing agent were added, 0.3 mM of aminolevulinic acid (trade name: 5-AMINOLEVULINATE HYDROCHLORIDE, Cosmo Bio Co., Ltd.), 0.3 mM of FeCl2 and 0.3 mM of ascorbic acid dissolved in Dulbecco's PBS (+) were added thereto, and the cells were suspended well. In the case an iron ion and a reducing agent were not added, 0.3 mM of aminolevulinic acid dissolved in Dulbecco's PBS (+) was added singly, and the cells were suspended well. Each of the mixture was then allowed to react at 37° C. for 60 minutes. The number of cells was adjusted, and then the cells were added dropwise to a 384-well plate. The plate was centrifuged to spin down the cells.
as §2

[3] = system: human breast adenocarcinoma cells (MCF-7); assay: Fluorescence values of cell suspension reacted with aminolevulinic acid (i-densy); settings: 1 mM, 37° C.
Source text: In accordance with the conventional method, human breast adenocarcinoma cells (cell line name: MCF-7; DS Pharma Biomedical Co., Ltd.) in culture was harvested with trypsin (Invitrogen). The cancer cell suspension harvested was centrifuged, and the supernatant was removed. The cells were resuspended with Dulbecco's PBS (+) (Nissui Pharmaceutical Co., Ltd.) and centrifuged, and the supernatant was removed again.
The number of the cells was counted using a hemacytometer in accordance with the conventional method, and then 2.8×10^5 cells per sample was aliquoted. […]
The fluorescence values of the cell suspension were measured using an i-densy (ARKRAY, Inc) at 15 minutes, 30 minutes, 60 minutes and 90 minutes after the start of the reaction. Conditions for fluorescence value measurement are as follows: 40° C. in the temperature regulated and light-intensity mode, Gain “3”, LED1 (390±20 nm for excitation)—PD3 (642.5±57.5 nm for detection).
In FIG. 7, the vertical axis represents fluorescence values, and the horizontal axis represents the reaction time. The solid squares represent fluorescence values obtained from the sample using Dulbecco's PBS (−) containing no Mg and Ca ions. The solid triangles represent fluorescence values obtained from the sample using Dulbecco's PBS (+) containing Mg and Ca ions. […]

[4] = Ascorbic acid 0.3 mM, FeC12 0.3 mM

NCC(=O)CCC(=O)O [aminolevulinic acid, 5-amino-4-oxopentanoic acid]
Positive rate (Fibroblast sarcoma cell (HT-1080)) ([1]; Ascorbic acid 0, FeC12 0): 97.3%
Positive rate (Fibroblast sarcoma cell (HT-1080)) [1, 4]: 79.3%
Negative rate (Normal epithelial cells (NHDF)) ([2]; Ascorbic acid 0, FeC12 0): 37.7%
Positive rate (Normal epithelial cells (NHDF)) ([2]; Ascorbic acid 0, FeC12 0): 62.3%
Negative rate (Normal epithelial cells (NHDF)) [2, 4]: 85.7%
Positive rate (Normal epithelial cells (NHDF)) [2, 4]: 14.3%
reactivity of aminolevulinic acid (fluorescence values of the cell suspension) ([3]; 15 to 90 minutes, Dulbecco's PBS (+) containing Mg and Ca ions versus PBS (−), FIG. 7): can be improved
reactivity of aminolevulinic acid (fluorescence values of the cell suspension) ([3]; Dulbecco's PBS (+) with Mg and Ca ions plus 10 μM ENDO-PORTER, FIG. 8): further improves the reactivity
